This note sets out measurements from US7807684B2, “HIV reverse transcriptase inhibitors” (Merck Sharp & Dohme Corp., priority 2005, dated 2010).

The nature of the data set: Oral dosing to rats, bioavailability. Format: in vivo. The conditions noted are these: compared to analogous dosing of the compound of Example 36.

Regarding `CNCCN(C)C(=O)n1nc(COc2ccc(Cl)c(Oc3cc(Cl)cc(C#N)c3)c2)c2cccnc21.Cl` [Example 59, 2-[[(3-{[4-chloro-3-(3-chloro-5-cyanophenoxy)phenoxy]methyl}-1H-pyrazolo[3,4-b]pyridin-1-yl)carbonyl](methyl)amino]-N-methylethanaminium chloride], the Bioavailability entry is recorded as “substantially higher bioavailability”.
